Measurements: US8895756B2, “Bendamustine pharmaceutical compositions” (priority 2005, dated 2014)

Experiment: HPLC stability of bendamustine (15 mg/mL, mannitol 25.5 mg/mL) in alcohol/water solutions at 5° C.
Assay type: physicochemical
Conditions: 5° C.
Experimental: A sample of each formulation was analyzed by HPLC after 0, 3, 6 and 24 hours when stored at 5° C.

Cl.Cn1c(CCCC(=O)O)nc2cc(N(CCCl)CCCl)ccc21 [bendamustine, 4-{5-[Bis(2-chloroethyl)amino]-1-methyl-2-benzimidazolyl}butyric acid]
Dimer (%) (1.9% Ethanol, 0 hours): 0.12% | HP1 (%) (1.9% Ethanol, 0 hours): 0.64% | Purity (% Area) (1.9% Ethanol, 0 hours): 99.11 % Area | Dimer (%) (1.9% Ethanol, 3 hours): 0.14% | HP1 (%) (1.9% Ethanol, 3 hours): 0.90% | Purity (% Area) (1.9% Ethanol, 3 hours): 98.83 % Area | Dimer (%) (1.9% Ethanol, 6 hours): 0.15% | HP1 (%) (1.9% Ethanol, 6 hours): 1.12% | Purity (% Area) (1.9% Ethanol, 6 hours): 98.60 % Area | Dimer (%) (1.9% Ethanol, 24 hours): 0.27% | HP1 (%) (1.9% Ethanol, 24 hours): 3.41% | Purity (% Area) (1.9% Ethanol, 24 hours): 96.16 % Area | Dimer (%) (5% Butanol, 0 hours): 0.13% | HP1 (%) (5% Butanol, 0 hours): 0.49% | Dimer (%) (5% Butanol, 3 hours): 0.14% | Dimer (%) (5% Butanol, 6 hours): 0.14% | HP1 (%) (5% Butanol, 6 hours): 0.91% | Purity (% Area) (5% Butanol, 6 hours): 98.76 % Area | Dimer (%) (5% Butanol, 24 hours): 0.21% | HP1 (%) (5% Butanol, 24 hours): 2.20% | Purity (% Area) (5% Butanol, 24 hours): 97.46 % Area | Dimer (%) (5% Ethanol, 0 hours): 0.12% | HP1 (%) (5% Ethanol, 0 hours): 0.44% | Purity (% Area) (5% Ethanol, 0 hours): 99.31 % Area | Dimer (%) (5% Ethanol, 3 hours): 0.13% | HP1 (%) (5% Ethanol, 3 hours): 0.64% | Purity (% Area) (5% Ethanol, 3 hours): 99.10 % Area | Dimer (%) (5% Ethanol, 6 hours): 0.14% | HP1 (%) (5% Ethanol, 6 hours): 0.86% | Purity (% Area) (5% Ethanol, 6 hours): 98.87 % Area | Dimer (%) (5% Ethanol, 24 hours): 0.25% | HP1 (%) (5% Ethanol, 24 hours): 2.68% | Purity (% Area) (5% Ethanol, 24 hours): 96.89 % Area | Dimer (%) (5% Iso-propanol, 0 hours): 0.13% | HP1 (%) (5% Iso-propanol, 0 hours): 0.48% | Purity (% Area) (5% Iso-propanol, 0 hours): 99.21 % Area | Dimer (%) (5% Iso-propanol, 3 hours): 0.14% | HP1 (%) (5% Iso-propanol, 3 hours): 0.72% | Purity (% Area) (5% Iso-propanol, 3 hours): 98.65 % Area | Dimer (%) (5% Iso-propanol, 6 hours): 0.14% | HP1 (%) (5% Iso-propanol, 6 hours): 1.02% | Purity (% Area) (5% Iso-propanol, 6 hours): 98.56 % Area | Dimer (%) (5% Iso-propanol, 24 hours): 0.26% | HP1 (%) (5% Iso-propanol, 24 hours): 3.35% | Purity (% Area) (5% Iso-propanol, 24 hours): 96.14 % Area | Dimer (%) (5% Methanol, 0 hours): 0.12% | HP1 (%) (5% Methanol, 0 hours): 0.40% | Purity (% Area) (5% Methanol, 0 hours): 99.35 % Area | Dimer (%) (5% Methanol, 3 hours): 0.14% | HP1 (%) (5% Methanol, 3 hours): 0.70% | Purity (% Area) (5% Methanol, 3 hours): 98.97 % Area | Dimer (%) (5% Methanol, 6 hours): 0.14% | HP1 (%) (5% Methanol, 6 hours): 0.95% | Purity (% Area) (5% Methanol, 6 hours): 98.66 % Area | Dimer (%) (5% Methanol, 24 hours): 0.23% | HP1 (%) (5% Methanol, 24 hours): 2.83% | Purity (% Area) (5% Methanol, 24 hours): 96.65 % Area | Dimer (%) (5% Tert-butanol, 0 hours): 0.12% | HP1 (%) (5% Tert-butanol, 0 hours): 0.41% | Purity (% Area) (5% Tert-butanol, 0 hours): 99.34 % Area | Dimer (%) (5% Tert-butanol, 3 hours): 0.14% | HP1 (%) (5% Tert-butanol, 3 hours): 0.64% | Purity (% Area) (5% Tert-butanol, 3 hours): 99.10 % Area | Dimer (%) (5% Tert-butanol, 6 hours): 0.13% | HP1 (%) (5% Tert-butanol, 6 hours): 0.88% | Purity (% Area) (5% Tert-butanol, 6 hours): 98.85 % Area | Dimer (%) (5% Tert-butanol, 24 hours): 0.20% | HP1 (%) (5% Tert-butanol, 24 hours): 2.09% | Purity (% Area) (5% Tert-butanol, 24 hours): 97.58 % Area | Dimer (%) (5% n-Propanol, 0 hours): 0.13% | HP1 (%) (5% n-Propanol, 0 hours): 0.43% | Purity (% Area) (5% n-Propanol, 0 hours): 99.25 % Area | Dimer (%) (5% n-Propanol, 3 hours): 0.15% | HP1 (%) (5% n-Propanol, 3 hours): 0.66% | Purity (% Area) (5% n-Propanol, 3 hours): 99.00 % Area | Dimer (%) (5% n-Propanol, 6 hours): 0.16% | HP1 (%) (5% n-Propanol, 6 hours): 0.94% | Purity (% Area) (5% n-Propanol, 6 hours): 98.72 % Area | Dimer (%) (5% n-Propanol, 24 hours): 0.26% | HP1 (%) (5% n-Propanol, 24 hours): 2.33% | Purity (% Area) (5% n-Propanol, 24 hours): 97.24 % Area | Dimer (%) (10% Butanol, 0 hours): 0.11% | HP1 (%) (10% Butanol, 0 hours): 0.30% | Purity (% Area) (10% Butanol, 0 hours): 99.44 % Area | Dimer (%) (10% Butanol, 3 hours): 0.12% | HP1 (%) (10% Butanol, 3 hours): 0.49% | Purity (% Area) (10% Butanol, 3 hours): 99.18 % Area | Dimer (%) (10% Butanol, 6 hours): 0.12% | HP1 (%) (10% Butanol, 6 hours): 0.64% | Purity (% Area) (10% Butanol, 6 hours): 99.03 % Area | Dimer (%) (10% Butanol, 24 hours): 0.17% | HP1 (%) (10% Butanol, 24 hours): 1.55% | Purity (% Area) (10% Butanol, 24 hours): 98.13 % Area | Dimer (%) (10% Ethanol, 0 hours): 0.11% | HP1 (%) (10% Ethanol, 0 hours): 0.33% | Purity (% Area) (10% Ethanol, 0 hours): 99.44 % Area | Dimer (%) (10% Ethanol, 3 hours): 0.12% | HP1 (%) (10% Ethanol, 3 hours): 0.48% | Purity (% Area) (10% Ethanol, 3 hours): 99.28 % Area | Dimer (%) (10% Ethanol, 6 hours): 0.12% | HP1 (%) (10% Ethanol, 6 hours): 0.65% | Purity (% Area) (10% Ethanol, 6 hours): 99.10 % Area | Dimer (%) (10% Ethanol, 24 hours): 0.18% | HP1 (%) (10% Ethanol, 24 hours): 1.57% | Purity (% Area) (10% Ethanol, 24 hours): 98.03 % Area | Dimer (%) (10% Iso-propanol, 0 hours): 0.12% | HP1 (%) (10% Iso-propanol, 0 hours): 0.37% | Purity (% Area) (10% Iso-propanol, 0 hours): 99.32 % Area | Dimer (%) (10% Iso-propanol, 3 hours): 0.14% | HP1 (%) (10% Iso-propanol, 3 hours): 0.55% | Purity (% Area) (10% Iso-propanol, 3 hours): 99.11 % Area | Dimer (%) (10% Iso-propanol, 6 hours): 0.16% | HP1 (%) (10% Iso-propanol, 6 hours): 0.75% | Purity (% Area) (10% Iso-propanol, 6 hours): 98.85 % Area | Dimer (%) (10% Iso-propanol, 24 hours): 0.21% | HP1 (%) (10% Iso-propanol, 24 hours): 1.92% | Purity (% Area) (10% Iso-propanol, 24 hours): 97.68 % Area | Dimer (%) (10% Methanol, 0 hours): 0.11% | HP1 (%) (10% Methanol, 0 hours): 0.34% | Purity (% Area) (10% Methanol, 0 hours): 99.42 % Area | Dimer (%) (10% Methanol, 3 hours): 0.12% | HP1 (%) (10% Methanol, 3 hours): 0.59% | Purity (% Area) (10% Methanol, 3 hours): 99.01 % Area | Dimer (%) (10% Methanol, 6 hours): 0.12% | HP1 (%) (10% Methanol, 6 hours): 0.80% | Purity (% Area) (10% Methanol, 6 hours): 98.86 % Area | Dimer (%) (10% Methanol, 24 hours): 0.18% | HP1 (%) (10% Methanol, 24 hours): 1.85% | Purity (% Area) (10% Methanol, 24 hours): 97.65 % Area | Dimer (%) (10% Tert-butanol, 0 hours): 0.11% | HP1 (%) (10% Tert-butanol, 0 hours): 0.30% | Purity (% Area) (10% Tert-butanol, 0 hours): 99.46 % Area | Dimer (%) (10% Tert-butanol, 3 hours): 0.12% | HP1 (%) (10% Tert-butanol, 3 hours): 0.48% | Purity (% Area) (10% Tert-butanol, 3 hours): 99.26 % Area | Dimer (%) (10% Tert-butanol, 6 hours): 0.13% | HP1 (%) (10% Tert-butanol, 6 hours): 0.69% | Purity (% Area) (10% Tert-butanol, 6 hours): 99.05 % Area | Dimer (%) (10% Tert-butanol, 24 hours): 0.19% | HP1 (%) (10% Tert-butanol, 24 hours): 1.64% | Purity (% Area) (10% Tert-butanol, 24 hours): 98.04 % Area | Dimer (%) (10% n-Propanol, 0 hours): 0.15% | HP1 (%) (10% n-Propanol, 0 hours): 0.33% | Purity (% Area) (10% n-Propanol, 0 hours): 99.34 % Area | Dimer (%) (10% n-Propanol, 3 hours): 0.14% | HP1 (%) (10% n-Propanol, 3 hours): 0.48% | Purity (% Area) (10% n-Propanol, 3 hours): 99.17 % Area | Dimer (%) (10% n-Propanol, 6 hours): 0.16%
